# Measured values published in patent US20230138395A1, “PHARMACEUTICAL COMPOSITIONS OF A THERAPEUTIC POLYENE MACROLIDE AND METHODS OF THEIR USE” (priority 2020, published 2023).
# Values joined by “and” are separate entries in the source; they are usually repeats but may differ in a detail not shown here. Identical values can stand only once. Like-named read-outs stand apart in the source and are kept apart here.
# Experiments:
# [1] = tested on: Fusarium strains (Table 18); test: MIC testing (CLSI M38-A2), Table 18; assay type: cell-based, Fusarium spp.; conditions: for MIC50: inhibits 50% of strains; for MIC90: inhibits 90% of strains
# [2] = tested on: Fusarium strains (Table 18); test: MFC determination, Table 18; assay type: cell-based, Fusarium spp.; conditions: for MFC50: kills 50% of strains; for MFC90: kills 90% of strains
# [3] = tested on: individual Aspergillus spp. (Table 13, species not given); test: MFC determination, Table 13; assay type: cell-based; conditions: Aspergillus sp. of Table 13; for MFC50: kills 50% of strains; for MFC90: kills 90% of strains
# C. parapsilosis = test: MFC determination; assay type: cell-based; conditions: for MFC50 / MFC90: C. parapsilosis; for MFC50: kills 50% of strains; for MFC90: kills 90% of strains
# Cr. neoformans strains = test: MIC testing (CLSI M27-A3, YNB, 72 h); assay type: cell-based, Cryptococcus neoformans; conditions: for MIC Range: Cr. neoformans strains, 72 h, in µg/mL; for MIC50 / MIC90: Cr. neoformans; for MIC50: inhibits 50% of strains; for MIC90: inhibits 90% of strains
# C. krusei strains [4] = test: MIC testing (CLSI M27-A3); assay type: cell-based; conditions: for MIC Range: C. krusei strains, in µg/mL; for MIC50 / MIC90: C. krusei; for MIC50: inhibits 50% of strains; for MIC90: inhibits 90% of strains
# A. fumigatus AF91 [5] = test: In vitro activity (MIC) against the infecting strain, Example 17; assay type: cell-based, Aspergillus fumigatus
# Description: Minimum Inhibitory Concentration: MIC testing was performed according to the Clinical and Laboratory Standards Institute (CLSI) M27-A3 and M38-A2 standards for the susceptibility testing of yeasts and filamentous fungi, respectively (Cryptococcus isolates were incubated for 72 h). For yeast strains, the incubation temperature and time were 35° C. and 24-48 h, respectively, and the inoculum size was 0.5-2.5×10^3 CFU/ml. For filamentous strains, the inoculum size was 0.4-5×10^4 CFU/ml, and the incubation time was strain and drug specific. RPMI 1640 was the test medium throughout, with the exception of the use of YNB for Cryptococcus. Inhibition endpoints for compound 1A were recorded at 50% and 100% after both 24 h and 48 h incubation; caspofungin results against Aspergillus strains were read as minimum effective concentrations (MEC), the lowest concentration that leads to small, rounded, compact growth as compared to the confluent growth of the control.
# C. albicans SC5314 = test: In vitro activity (MIC) against the infecting strain, Example 18; assay type: cell-based, Candida albicans
# Penicillium strains [6] = test: MFC determination; assay type: cell-based, Penicillium spp.; conditions: for MFC50: kills 50% of strains; for MFC90: kills 90% of strains
# [7] = tested on: all Aspergillus strains tested; test: MFC determination, summary; assay type: cell-based; conditions: for MFC50: kills 50% of strains; for MFC90: kills 90% of strains
# [8] = tested on: Blastomyces dermatitidis, Coccidioides immitis, and Histoplasma capsulatum strains; assay type: cell-based; conditions: dimorphic fungal isolates; in µg/mL
# C. krusei strains [9] = test: MFC determination; assay type: cell-based; conditions: for MFC50 / MFC90: C. krusei; for MFC50: kills 50% of strains; for MFC90: kills 90% of strains
# [10] = tested on: individual Aspergillus spp. (Table 15, species not named); test: MIC testing (CLSI M38-A2), Table 15; assay type: cell-based; conditions: Aspergillus sp. of Table 15, caspofungin read as MEC; for MIC Range: in µg/mL; for MIC50: inhibits 50% of strains; for MIC90: inhibits 90% of strains
# Candida albicans [11] = test: MFC determination; assay type: cell-based; conditions: for MFC Range: in µg/mL; for MFC50: kills 50% of strains; for MFC90: kills 90% of strains
# A. fumigatus AF91 [12] = test: In vitro activity (MFC) against the infecting strain, Example 17; assay type: cell-based, Aspergillus fumigatus
# Description: Minimum Fungicidal Concentration: MFC determinations were performed according to the modifications previously described by Canton et al., Diagn. Microbiol. Infect. Dis., 45:203-206, 2003, and Ghannoum and Isham, Infectious Diseases in Clinical Practice, 15(4):250-253, 2007.
# Specifically, the total contents of each clear well from the MIC assay were subcultured onto potato dextrose agar. To avoid antifungal carryover, the aliquots were allowed to soak into the agar and then were streaked for isolation once dry, thus removing the cells from the drug source. Fungicidal activity is defined as ≥99.9% reduction in the number of colony forming units (CFU)/ml from the starting inoculum count, while fungistatic activity is defined as <99.9% reduction. […] MIC and MFC values are considered to be equivalent if they are within 2 dilutions.
# Candida albicans [13] = test: MIC testing (CLSI M27-A3); assay type: cell-based; set-up: MIC: unit not given beside the values; conditions: for MIC Range: in µg/mL; for MIC50: inhibits 50% of strains; for MIC90: inhibits 90% of strains
# [14] = tested on: individual Aspergillus spp. (Table 15, species not named); test: MFC determination, Table 15; assay type: cell-based; conditions: Aspergillus sp. of Table 15; for MFC50: kills 50% of strains; for MFC90: kills 90% of strains
# Penicillium strains [15] = test: MIC testing (CLSI M38-A2); assay type: cell-based, Penicillium spp.; conditions: for MIC50 / MIC90: Penicillium; for MIC50: inhibits 50% of strains; for MIC90: inhibits 90% of strains
# all Candida strains = test: MFC determination, summary; assay type: cell-based; conditions: for MFC50: kills 50% of strains; for MFC90: kills 90% of strains
# [16] = tested on: individual Aspergillus spp. (Table 14, species not named); test: MIC testing (CLSI M38-A2), Table 14; assay type: cell-based; conditions: Aspergillus sp. of Table 14, caspofungin read as MEC; for MIC Range: in µg/mL; for MIC50: inhibits 50% of strains; for MIC90: inhibits 90% of strains
# [17] = tested on: Aspergillus fumigatus AF91; test: Disseminated Aspergillosis in immunocompromised murine model (CD-1 mice): tissue fungal burden; conditions: Experiment I; 1.0 mg/kg i.v., 7 days
# Candida albicans SC5314 = test: Disseminated candidiasis in immunocompromised murine model (BALB/c mice): tissue fungal burden; assay type: in vivo; conditions: Experiment I; 0.35 mg/kg i.v., 7 days
# [18] = Fluconazole-resistant C. albicans n = 7
# [19] = Fluconazole-susceptible C. albicans n = 13
# [20] = individual C. krusei strain with elevated MICs to non-polyene comparators (Table 22)
# [21] = individual C. albicans strain with elevated MICs to non-polyene comparators (Table 22), listed as Cas
smiles,measurement,setting,value
C[C@@H]1[C@H](O)[C@@H](C)/C=C/C=C/C=C/C=C/C=C/C=C/C=C/[C@H](O[C@@H]2O[C@H](C)[C@@H](O)[C@H](N)[C@@H]2O)C[C@@H]2O[C@](O)(C[C@@H](O)C[C@@H](O)[C@H](O)CC[C@@H](O)C[C@@H](O)CC(=O)O[C@H]1C)C[C@H](O)[C@H]2C(=O)O [Amphotericin B],MIC50,[1],0.5 µg/mL
same,MIC90,[1],2 µg/mL
same,MFC50,[2],1 µg/mL
same,MFC90,[2],8 µg/mL
same,MFC50,[3],> 8 µg/mL
same,MFC90,[3],> 8 µg/mL
same,MFC Range,"C. parapsilosis; C. parapsilosis strains, in µg/mL",0.5-2
same,MFC50,C. parapsilosis,1 µg/mL
same,MFC90,C. parapsilosis,1 µg/mL
same,MIC Range,Cr. neoformans strains,0.06-1
same,MIC50,Cr. neoformans strains,0.25 µg/mL
same,MIC90,Cr. neoformans strains,0.5 µg/mL
same,MIC Range,C. krusei strains [4],0.5-1
same,MIC50,C. krusei strains [4],0.5 µg/mL
same,MIC90,C. krusei strains [4],1 µg/mL
same,MIC,A. fumigatus AF91 [5],2 µg/mL
same,MIC,C. albicans SC5314,0.125 µg/mL
same,MFC50,Penicillium strains [6],4 µg/mL
same,MFC90,Penicillium strains [6],> 8 µg/mL
same,MFC50,[7],> 8 µg/mL
same,MFC90,[7],> 8 µg/mL
same,MIC Range,[8],<0.03-0.125
same,MFC Range,"C. krusei strains [9]; C. krusei strains, in µg/mL",1
same,MFC50,C. krusei strains [9],1 µg/mL
same,MFC90,C. krusei strains [9],1 µg/mL
same,MIC Range,[10],0.25-16
same,MIC50,[10],8 µg/mL
same,MIC90,[10],8 µg/mL
same,MFC Range,Candida albicans [11]; [18],0.5-1
same,MFC Range,Candida albicans [11]; [19],0.125-1
same,MFC50,Candida albicans [11]; [19],0.25 µg/mL
same,MFC90,Candida albicans [11]; [19],1 µg/mL
same,MFC,A. fumigatus AF91 [12],16 µg/mL
same,MIC Range,Candida albicans [13]; [18],0.25-1
same,MIC Range,Candida albicans [13]; [19],0.125-0.5
same,MIC50,Candida albicans [13]; [19],0.25 µg/mL
same,MIC90,Candida albicans [13]; [19],0.5 µg/mL
same,MFC50,[14],> 32 µg/mL
same,MFC90,[14],> 32 µg/mL
same,MIC Range,"Penicillium strains [15]; Penicillium strains, in µg/mL",0.5-4
same,MIC50,Penicillium strains [15],1 µg/mL
same,MIC90,Penicillium strains [15],2 µg/mL
same,MFC Range,all Candida strains; in µg/mL,0.125-2
same,MFC50,all Candida strains,0.5 µg/mL
same,MFC90,all Candida strains,1 µg/mL
same,MIC Range,[16],0.25-2
same,MIC50,[16],1 µg/mL
same,MIC90,[16],1 µg/mL
"CC[C@H](C)C[C@H](C)CCCCCCCCC(=O)N[C@H]1C[C@@H](O)[C@@H](NCCN)NC(=O)[C@@H]2[C@@H](O)CCN2C(=O)[C@H]([C@H](O)CCN)NC(=O)[C@H]([C@H](O)[C@@H](O)c2ccc(O)cc2)NC(=O)[C@@H]2C[C@@H](O)CN2C(=O)[C@H]([C@@H](C)O)NC1=O [Caspofungin, caspofungin]",MIC50,[1],> 32 µg/mL
same,MIC90,[1],> 32 µg/mL
same,MFC Range,[2],> 32 µg/mL
same,MFC50,[2],> 32 µg/mL
same,MFC90,[2],> 32 µg/mL
same,"Kidney tissue fungal burden, Mean log CFUs ± the standard deviation",[17],3.11 ± 0.62 log CFUs
same,"Lung tissue fungal burden, Mean log CFUs ± the standard deviation",[17],3.41 ± 0.64 log CFUs
same,"Brain tissue fungal burden, Mean log CFUs ± the standard deviation",Candida albicans SC5314,1.22 ± 1.87 log CFUs
same,"Kidney tissue fungal burden, Mean log CFUs ± the standard deviation",Candida albicans SC5314,3.22 ± 1.26 log CFUs
same,MFC50,[3],> 32 µg/mL
same,MFC90,[3],> 32 µg/mL
same,MFC50,C. parapsilosis,> 32 µg/mL
same,MFC90,C. parapsilosis,> 32 µg/mL
same,MFC,"C. parapsilosis; individual C. parapsilosis strain with elevated MICs to non-polyene comparators (Table 22), in µg/mL",>32
same,MIC Range,Cr. neoformans strains,1-16
same,MIC50,Cr. neoformans strains,16 µg/mL
same,MIC90,Cr. neoformans strains,16 µg/mL
same,MIC Range,C. krusei strains [4],0.5-16
same,MIC50,C. krusei strains [4],1 µg/mL
same,MIC90,C. krusei strains [4],4 µg/mL
same,MIC,C. krusei strains [4]; [20],16 µg/mL
same,MIC,"A. fumigatus AF91 [5]; Aspergillus fumigatus, minimum effective concentration, read-out: MIC read as MEC",0.25 µg/mL
same,MIC,"C. albicans SC5314; Candida albicans, minimum effective concentration, read-out: MIC read as MEC",0.25 µg/mL
same,MFC50,Penicillium strains [6],> 32 µg/mL
same,MFC90,Penicillium strains [6],> 32 µg/mL
same,MFC50,[7],> 32 µg/mL
same,MFC90,[7],> 32 µg/mL
same,MIC Range,[8],0.03-0.5
same,MFC50,C. krusei strains [9],2 µg/mL
same,MFC90,C. krusei strains [9],8 µg/mL
same,MFC,C. krusei strains [9]; [20],> 32 µg/mL
same,MIC Range,[10],0.25-1
same,MIC50,[10],0.25 µg/mL
same,MIC90,[10],0.5 µg/mL
same,MFC Range,Candida albicans [11]; [19],0.5-32
same,MFC50,Candida albicans [11]; [19],0.25 µg/mL
same,MFC90,Candida albicans [11]; [19],2 µg/mL
same,MFC,Candida albicans [11]; [21],>32 (2×) and 32
same,MFC,"A. fumigatus AF91 [12]; Aspergillus fumigatus, read-out: MFC",> 16 µg/mL
same,MIC Range,Candida albicans [13]; [18],0.125-2
same,MIC Range,Candida albicans [13]; [19],0.125-0.25
same,MIC50,Candida albicans [13]; [19],0.25 µg/mL
same,MIC90,Candida albicans [13]; [19],0.25 µg/mL
same,MIC,Candida albicans [13]; [21],1 (2×) and 2
same,MFC50,[14],> 32 µg/mL
same,MFC90,[14],> 32 µg/mL
same,MIC50,Penicillium strains [15],4 µg/mL
same,MIC90,Penicillium strains [15],32 µg/mL
same,MFC50,all Candida strains,16 µg/mL
same,MFC90,all Candida strains,> 32 µg/mL
same,MIC Range,[16],0.125-2
same,MIC50,[16],0.125 µg/mL
same,MIC90,[16],0.25 µg/mL
